The target of one assay is MAPKAPK2 (Homo sapiens, UniProt P49137). Description: In vitro selection of DNA-templated macrocycle library against GST-fused target. The format is binding. To be noted: one round of selection; DNA-linked library member. The source says: (§1) Multiple representatives were chosen from each protein class so that we could compare selection results within protein families. In total, we performed a single round of in vitro selection against 36 protein targets. Additionally, we also performed a selection for binding to GST (with no fused target protein) immobilized on glutathione-linked resin. Although successive rounds of selection (with or without DNA amplification and translation between rounds) can multiply net enrichment factors,^29 we hypothesized that recent advances in ultra high-throughput DNA sequencing would enable even modest enrichment factors to be robustly detected, and the findings in this work are the result of a single round of selection on each protein target.
(§2) Following in vitro selection, DNA templates linked to target-binding macrocycles were amplified in PCR reactions using primers containing “barcode” sequences specific to each selection (FIG. 3). We also amplified DNA templates from eight aliquots of the unselected library to determine the initial abundance of each library member. A set of 12 five-base barcodes used in pairwise combinations provided sufficient encoding complexity for one round of selection against 36 protein targets, a control selection against immobilized GST, and eight pre-selection library samples (Table 3). These barcodes were designed to differ by at least three bases from one another so that common DNA sequencing errors would not preclude barcode assignment. After affinity selection and PCR amplification, barcoded samples were combined in equimolar amounts and submitted for ultra high-throughput DNA sequencing^46,47 as a single sample.
(§3) To rapidly identify the DNA-linked macrocycles that survived target affinity selection, we used Solexa (Illumina) DNA sequencing technology.^48 Because standard Solexa sequencing read lengths at the time of this experiment were shorter than the length of our barcoded library templates (84 base pairs), the paired-end sequencing method, which provides both forward and reverse sequencing reads for each template, was used. We created a PERL computer program to analyze the large amount of data emerging from high-throughput sequencing. First, forward and reverse sequence reads were merged to give complete template sequences (FIG. 4a). Each complete DNA sequence was converted into a combination of a barcode (selection identity) and three codons (building block identities). Template sequences were then binned by barcode to deconvolute the results of each selection. The abundance fraction of each library member was determined within each selection by counting the number of corresponding DNA sequence occurrences and dividing by the total number of interpretable sequence reads for that selection. Finally, enrichment factors for each library member were computed by dividing post-selection abundance fraction by pre-selection abundance fraction. In total, we received 25.6 million paired forward and reverse sequence reads from two Solexa sequencing runs. Of these, all four codons (which require five out of six correct bases per codon for the building blocks, and three out of three correct bases per codon for the scaffold^24) and the selection barcode (which requires four out of five correct bases) could be conclusively assigned for 12.4 million sequences. As a result, we obtained ˜200,000 sequence reads for each selection, and 1.7 million sequence reads of the pre-selection library.
(§4) In vitro selections of the 13,824-membered library were conducted exactly as described above for the positive control selections. For each selection, 5 pmol of library were used. PCR amplification of selection survivors was performed with 5′-barcoded forward and reverse primers. Barcoded PCR amplicons were quantitated using Picogreen dsDNA quantitation reagent (Invitrogen), mixed in equimolar amounts, and submitted for high-throughput DNA sequencing.

Another assay concerns the target Pim1 (Homo sapiens, UniProt P11309). The assay is described as above. The format is binding. To be noted: one round of selection; DNA-linked library member.
Description: as §1, §2, §3, §4

MAPKAPK2, sequence (P49137 whole entry, the tested form may be a part): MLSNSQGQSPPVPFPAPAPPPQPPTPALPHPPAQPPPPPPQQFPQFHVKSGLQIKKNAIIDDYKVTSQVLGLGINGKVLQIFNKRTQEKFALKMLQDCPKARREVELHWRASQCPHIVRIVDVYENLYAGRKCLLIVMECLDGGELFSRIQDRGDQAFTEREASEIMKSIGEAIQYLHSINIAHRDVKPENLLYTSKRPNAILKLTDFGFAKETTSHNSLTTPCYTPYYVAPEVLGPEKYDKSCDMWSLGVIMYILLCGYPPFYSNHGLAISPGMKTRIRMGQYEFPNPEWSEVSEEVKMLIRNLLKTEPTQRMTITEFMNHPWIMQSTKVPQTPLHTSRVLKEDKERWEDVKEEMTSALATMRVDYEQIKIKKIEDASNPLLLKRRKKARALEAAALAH
Pim1, sequence (P11309 whole entry): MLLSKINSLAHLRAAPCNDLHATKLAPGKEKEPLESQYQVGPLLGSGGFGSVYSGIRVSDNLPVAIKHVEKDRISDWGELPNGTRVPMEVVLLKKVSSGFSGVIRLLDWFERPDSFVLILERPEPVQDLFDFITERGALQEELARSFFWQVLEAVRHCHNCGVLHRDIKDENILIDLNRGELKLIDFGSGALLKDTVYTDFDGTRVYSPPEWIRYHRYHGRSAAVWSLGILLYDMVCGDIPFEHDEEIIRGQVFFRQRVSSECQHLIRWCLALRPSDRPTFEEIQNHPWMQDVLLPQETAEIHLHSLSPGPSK

As to `NC(=O)[C@@H]1CCNC(=O)C=CC(=O)N[C@@H](C/C=C/c2ccccc2)C(=O)N[C@@H](CC2CCCCC2)C(=O)N[C@H](Cc2ccc(C(=O)c3ccccc3)cc2)C(=O)N1` [A12-B8-C10-D3], the “enrichment upon selection for binding MAPKAPK2” value on MAPKAPK2 is listed as 3 fold. Besides, the “enrichment upon selection for binding Pim1” value on Pim1 was 3.5 fold.

As to `NC(=O)[C@@H]1CNC(=O)C=CC(=O)N[C@@H](C/C=C/c2ccccc2)C(=O)N[C@@H](CC2CCCCC2)C(=O)N[C@H](Cc2ccc(C(=O)c3ccccc3)cc2)C(=O)N1` [A12-B8-C10-D4], the “enrichment upon selection for binding MAPKAPK2” value at MAPKAPK2 is reported as 3 fold. The “enrichment upon selection for binding Pim1” value on Pim1 is reported as 10 fold.

Turning to `NC(=O)[C@@H]1CNC(=O)[C@@H](Cc2ccc(C(=O)c3ccccc3)cc2)NC(=O)[C@H](CC2CCCCC2)NC(=O)[C@H](C/C=C/c2ccccc2)NC(=O)C=CC(=O)N1` [A12-B8-C10-D8], the “enrichment upon selection for binding MAPKAPK2” value at MAPKAPK2 is 2.5 fold. The “enrichment upon selection for binding Pim1” value on Pim1 turned out to be 6 fold.

The record behind these values is patent publication US8975232B2, “Macrocyclic kinase inhibitors and uses thereof” (President and Fellows of Harvard College, priority 2010, dated 2015).
